In ChEMBL document CHEMBL1136068 (Bioorg Med Chem Lett, 2003):
Calls of active or inactive are those of the source. The calls are words filed in the database; no cut-off is given here.

What was measured:
Progesterone receptor [1] = target: T1, Progesterone receptor (Homo sapiens, UniProt P06401); assay: Binding affinity to human progesterone receptor
T1 sequence (P06401 whole entry): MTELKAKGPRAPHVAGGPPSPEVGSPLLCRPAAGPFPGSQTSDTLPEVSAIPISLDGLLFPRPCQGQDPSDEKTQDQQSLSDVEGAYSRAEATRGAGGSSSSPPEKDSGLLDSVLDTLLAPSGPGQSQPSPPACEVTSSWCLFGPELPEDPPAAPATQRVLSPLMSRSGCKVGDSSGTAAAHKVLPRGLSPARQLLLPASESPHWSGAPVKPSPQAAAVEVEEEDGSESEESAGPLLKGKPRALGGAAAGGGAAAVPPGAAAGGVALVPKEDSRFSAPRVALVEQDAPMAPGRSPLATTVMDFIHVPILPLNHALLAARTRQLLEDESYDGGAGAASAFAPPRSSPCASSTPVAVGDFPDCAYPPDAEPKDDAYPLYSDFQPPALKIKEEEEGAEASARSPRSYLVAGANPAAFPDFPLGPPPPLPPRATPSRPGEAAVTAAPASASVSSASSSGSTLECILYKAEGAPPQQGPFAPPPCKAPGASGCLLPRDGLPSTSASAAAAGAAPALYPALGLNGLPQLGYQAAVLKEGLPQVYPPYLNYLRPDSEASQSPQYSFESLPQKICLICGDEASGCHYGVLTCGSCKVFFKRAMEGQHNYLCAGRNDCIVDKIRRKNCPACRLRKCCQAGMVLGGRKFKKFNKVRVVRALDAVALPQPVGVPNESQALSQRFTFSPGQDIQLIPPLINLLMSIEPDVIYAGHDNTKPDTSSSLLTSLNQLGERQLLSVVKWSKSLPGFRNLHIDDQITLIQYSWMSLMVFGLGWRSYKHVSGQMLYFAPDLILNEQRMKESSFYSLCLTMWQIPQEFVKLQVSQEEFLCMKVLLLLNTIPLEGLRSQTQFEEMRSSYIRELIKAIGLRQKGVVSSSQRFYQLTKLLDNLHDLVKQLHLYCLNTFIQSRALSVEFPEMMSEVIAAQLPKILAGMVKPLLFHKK

[2] = target: T2, Progesterone receptor (Homo sapiens) (UniProt P06401); assay: Antagonistic efficacy towards human progesterone receptor (hPR) using the cotransfection assay in CV-1 cells; type: functional, cell-based
T2 sequence (whole entry): T1 sequence (P06401 whole entry)

Progesterone receptor [3] = target: T1, Progesterone receptor; assay: Inhibitory concentration for antagonistic activity towards human progesterone receptor (hPR) using the cotransfection assay in CV-1 cells; type: functional, cell-based
Progesterone receptor [4] = target: T1, Progesterone receptor; assay: Effective concentration for agonist activity towards human progesterone receptor (hPR) using the cotransfection assay in CV-1 cells; type: functional, cell-based
[5] = target: T2, Progesterone receptor (Homo sapiens); assay: Agonist efficacy towards human progesterone receptor (hPR) using the cotransfection assay in CV-1 cells; type: functional, cell-based
[6] = target: T2, Progesterone receptor (Homo sapiens); assay: Agonist efficacy towards human progesterone receptor (hPR) expressed in CV-1 cells; Not active; type: functional, cell-based
Progesterone receptor [7] = target: T1, Progesterone receptor; assay: Effective concentration for agonist activity towards human progesterone receptor (hPR) expressed in CV-1 cells; Not active; type: functional, cell-based
[8] = target: T2, Progesterone receptor (Homo sapiens); assay: Antagonistic efficacy towards human progesterone receptor (hPR) using the cotransfection assay in CV-1 cells; Not active; type: functional, cell-based
Progesterone receptor [9] = target: T1, Progesterone receptor; assay: Inhibition of antagonist binding to human progesterone receptor (hPR); Not active
Androgen receptor = target: T3, Androgen receptor (Homo sapiens, UniProt P10275); assay: Antagonist activity against human Androgen receptor; type: functional
T3 sequence (P10275 whole entry): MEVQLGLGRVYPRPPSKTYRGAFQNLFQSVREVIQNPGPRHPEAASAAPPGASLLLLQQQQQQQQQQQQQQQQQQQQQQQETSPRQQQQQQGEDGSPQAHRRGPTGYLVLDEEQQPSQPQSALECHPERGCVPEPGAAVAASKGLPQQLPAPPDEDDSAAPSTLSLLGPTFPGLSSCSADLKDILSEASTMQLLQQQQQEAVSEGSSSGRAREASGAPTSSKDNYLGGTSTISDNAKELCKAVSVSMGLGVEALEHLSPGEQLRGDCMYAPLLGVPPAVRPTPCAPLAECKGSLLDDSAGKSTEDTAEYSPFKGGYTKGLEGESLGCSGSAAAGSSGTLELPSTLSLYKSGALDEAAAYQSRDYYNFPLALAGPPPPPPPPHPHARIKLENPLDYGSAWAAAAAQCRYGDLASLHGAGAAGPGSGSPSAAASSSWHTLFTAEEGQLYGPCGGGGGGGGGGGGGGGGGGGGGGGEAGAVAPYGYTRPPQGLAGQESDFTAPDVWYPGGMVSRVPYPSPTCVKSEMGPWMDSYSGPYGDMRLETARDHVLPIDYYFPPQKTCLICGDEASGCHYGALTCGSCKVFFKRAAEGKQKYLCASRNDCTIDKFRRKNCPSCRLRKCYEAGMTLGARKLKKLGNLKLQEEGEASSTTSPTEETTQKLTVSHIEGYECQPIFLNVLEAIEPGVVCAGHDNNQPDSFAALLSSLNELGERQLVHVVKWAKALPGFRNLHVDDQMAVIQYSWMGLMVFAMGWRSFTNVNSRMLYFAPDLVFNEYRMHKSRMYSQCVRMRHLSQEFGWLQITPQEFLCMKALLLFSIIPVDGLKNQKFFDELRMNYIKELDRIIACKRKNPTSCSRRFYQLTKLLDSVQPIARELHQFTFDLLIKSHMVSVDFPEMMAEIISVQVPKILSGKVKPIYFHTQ

[10] = target: T4, Mineralocorticoid receptor (Homo sapiens, UniProt P08235); assay: Antagonist activity at mineralocorticoid receptor (hMR); type: functional
T4 sequence (P08235 whole entry): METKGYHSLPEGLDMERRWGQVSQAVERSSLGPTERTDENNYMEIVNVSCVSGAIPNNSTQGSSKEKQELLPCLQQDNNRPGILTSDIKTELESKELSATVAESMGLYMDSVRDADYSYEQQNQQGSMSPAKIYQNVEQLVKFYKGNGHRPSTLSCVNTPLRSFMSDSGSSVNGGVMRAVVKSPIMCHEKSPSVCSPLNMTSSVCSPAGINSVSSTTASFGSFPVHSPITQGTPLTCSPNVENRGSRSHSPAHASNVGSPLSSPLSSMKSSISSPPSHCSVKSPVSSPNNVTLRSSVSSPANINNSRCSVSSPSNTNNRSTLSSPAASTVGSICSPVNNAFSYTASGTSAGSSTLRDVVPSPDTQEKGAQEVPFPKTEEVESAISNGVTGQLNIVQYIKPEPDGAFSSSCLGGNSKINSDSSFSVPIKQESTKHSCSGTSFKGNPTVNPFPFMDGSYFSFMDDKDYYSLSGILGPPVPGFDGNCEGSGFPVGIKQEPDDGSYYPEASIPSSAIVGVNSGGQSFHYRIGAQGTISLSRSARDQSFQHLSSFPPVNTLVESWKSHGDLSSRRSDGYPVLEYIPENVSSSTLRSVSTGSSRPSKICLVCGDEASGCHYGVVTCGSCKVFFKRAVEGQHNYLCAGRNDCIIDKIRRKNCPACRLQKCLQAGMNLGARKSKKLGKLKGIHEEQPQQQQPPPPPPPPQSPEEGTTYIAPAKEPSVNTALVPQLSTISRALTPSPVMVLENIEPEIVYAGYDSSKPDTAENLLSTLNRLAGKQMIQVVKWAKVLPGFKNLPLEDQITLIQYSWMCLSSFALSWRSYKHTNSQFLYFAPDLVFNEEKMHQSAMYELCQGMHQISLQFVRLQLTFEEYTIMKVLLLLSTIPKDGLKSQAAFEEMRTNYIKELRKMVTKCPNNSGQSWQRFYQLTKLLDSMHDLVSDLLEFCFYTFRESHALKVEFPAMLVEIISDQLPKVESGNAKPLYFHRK

Progesterone receptor [11] = target: T1, Progesterone receptor; assay: Inhibitory concentration for antagonistic activity towards human progesterone receptor (hPR) using the cotransfection assay in CV-1 cells; Not active; type: functional, cell-based
[12] = target: T5, Mineralocorticoid receptor (Homo sapiens) (UniProt P08235); assay: Antagonist efficacy at mineralocorticoid receptor (hMR); type: functional
T5 sequence (whole entry): T4 sequence (P08235 whole entry)

Glucocorticoid receptor = target: T6, Glucocorticoid receptor (Homo sapiens, UniProt P04150); assay: Antagonist activity at glucocorticoid receptor; type: functional
T6 sequence (P04150 whole entry): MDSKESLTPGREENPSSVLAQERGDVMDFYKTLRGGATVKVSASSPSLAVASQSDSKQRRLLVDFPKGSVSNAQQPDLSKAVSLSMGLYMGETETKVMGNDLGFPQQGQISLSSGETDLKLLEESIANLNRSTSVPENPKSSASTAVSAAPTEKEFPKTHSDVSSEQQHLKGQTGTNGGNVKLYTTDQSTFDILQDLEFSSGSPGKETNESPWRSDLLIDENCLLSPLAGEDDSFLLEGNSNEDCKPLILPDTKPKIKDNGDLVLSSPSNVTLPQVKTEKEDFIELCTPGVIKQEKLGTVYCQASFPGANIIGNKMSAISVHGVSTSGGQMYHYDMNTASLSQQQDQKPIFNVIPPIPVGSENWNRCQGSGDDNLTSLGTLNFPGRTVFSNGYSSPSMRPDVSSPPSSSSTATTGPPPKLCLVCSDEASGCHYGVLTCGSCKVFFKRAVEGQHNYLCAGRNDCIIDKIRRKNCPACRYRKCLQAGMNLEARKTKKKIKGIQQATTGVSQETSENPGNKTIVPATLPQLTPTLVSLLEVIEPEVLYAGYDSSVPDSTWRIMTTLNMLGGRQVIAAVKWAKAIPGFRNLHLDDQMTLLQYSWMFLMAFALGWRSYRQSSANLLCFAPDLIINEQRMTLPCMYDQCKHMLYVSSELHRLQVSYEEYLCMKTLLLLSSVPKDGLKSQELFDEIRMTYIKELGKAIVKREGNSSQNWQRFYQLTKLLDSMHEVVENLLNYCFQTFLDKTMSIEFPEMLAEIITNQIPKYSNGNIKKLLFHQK

Structure (SMILES)	Ki (Progesterone receptor [1]) [nM]	Efficacy [2] [%]	IC50 (Progesterone receptor [3]) [nM]	EC50 (Progesterone receptor [4]) [nM]	Efficacy [5] [%]	Efficacy [6]	EC50 (Progesterone receptor [7])	Efficacy [8]	IC50 (Progesterone receptor [9])	IC50 (Androgen receptor) [nM]	IC50 [10] [nM]	IC50 (Progesterone receptor [11])	Efficacy [12] [%]	IC50 (Glucocorticoid receptor) [nM]
CC/C(C)=C1/Oc2ccc(F)cc2-c2ccc3c(c21)C(C)=CC(C)(C)N3	16.7	38	980	27	64									
CC1=CC(C)(C)Nc2ccc3c(c21)/C(=C/C#N)Oc1ccc(F)cc1-3	45	75	65	2700	70									
CC(=O)/C=C1\Oc2ccc(F)cc2-c2ccc3c(c21)C(C)=CC(C)(C)N3	> 100	91	124			inactive	Not Active							
CCC/C=C1\Oc2ccc(F)cc2-c2ccc3c(c21)C(C)=CC(C)(C)N3	3.1			28	90			inactive	Not Active					
CC1=CC(C)(C)Nc2ccc3c(c21)/C(=C/C=O)Oc1ccc(F)cc1-3	> 100	97	243			inactive	Not Active							
CC1=CC(C)(C)Nc2ccc3c(c21)C(=C1SCCCS1)Oc1ccc(F)cc1-3				2.1	151			inactive		180	681	Not Active	92	146
CC1=CC(C)(C)Nc2ccc3c(c21)/C(=C/c1ccccc1C)Oc1ccccc1-3								inactive				Not Active		
CC1=CC(C)(C)Nc2ccc3c(c21)C(=C(c1ccccc1)c1ccccc1)Oc1ccc(F)cc1-3	> 100	90	1930			inactive	Not Active							
CC1=CC(C)(C)Nc2ccc3c(c21)/C(=C/C1CCCCC1)Oc1ccc(F)cc1-3	> 100	70	800	48	28									
C=C1Oc2ccc(F)cc2-c2ccc3c(c21)C(C)=CC(C)(C)N3	6.1			1000	87			inactive				Not Active		
C=C(/C=C1\Oc2ccc(F)cc2-c2ccc3c(c21)C(C)=CC(C)(C)N3)C(C)C	26			29	122			inactive				Not Active		
